Patent publication US20230181905A1, “Systems, Devices, and Methods for Enhancing the Neuroprotective Effects of Non-Invasive Gamma Stimulation with Pharmacological Agents” (Massachusetts Institute of Technology, priority 2021, published 2023)

Assays:
synaptophysin = assay: Synaptophysin western blot and immunohistochemistry; format: in vivo, mouse; details: 5×FAD mice
Description: Loss of synapses and neurons are closely associated with higher neuroinflammatory response and cognitive decline in AD. Therefore, synaptic markers in the visual cortex of Plx3397 and/or GENUS treated mice were evaluated. […] Thus, whether these treatments had any effect on neuronal density by immunohistochemical analysis of neuronal marker NeuN was examined (Synaptic Systems, #266 004) positive cells (FIG. 4A).
The visual cortex was dissected out and snap-frozen in liquid nitrogen and stored in an −80° C. freezer until processing. Samples were homogenized using a glass homogenizer with RIPA (50 mM Tris HCl pH 8.0, 150 mM NaCl, 1% NP-40, 0.5% sodium deoxycholate, 0.1% SDS) buffer which contains protease and phosphatase inhibitor. The concentration of proteins in samples were quantified using a Bio-Rad protein assay. Equal concentrations of proteins were prepared and added with SDS—sample buffer. […] of protein was loaded onto 4-20% polyacrylamide gels and electrophoresed. Protein was transferred from acrylamide gels to nitrocellulose membranes for 12 min (Semi-dry system, Bio-Rad). Membranes were blocked using BSA (5% w/v) diluted in TBS containing 0.1% Tween-20 (TBSTw), then incubated in primary antibodies overnight at 4° C. The following day, they were washed three times with TBSTw and incubated with horseradish peroxidase-linked secondary antibodies (GE Healthcare) at room temperature for 60 min. After three further washes with TBSTw, membranes were treated with chemiluminescence substrates and the blots were visualized (Chem doc, Bio-Rad). Signal intensities were quantified using ImageJ 1.46q and normalized to values of loading control.
These observations led to examination of the effect of Plx3397 administration on neuronal integrity. […]
The brain was perfused with PBS and fixed with 4% PFA. […] Signal intensities were quantified using ImageJ 1.46q and normalized to values of loading control.

[1] = test system: myelin basic protein (MBP); assay: MBP levels and myelination of PV axons; format: in vivo, mouse; details: 5×FAD mice
Excerpt: It was next sought to understand whether Plx3397 administration-dependent electrophysiological alterations were attributed to changes in amyloid plaque levels. […] In the cuprizone model of demyelination, Plx33977 administration preserved myelin. It was thus considered whether electrophysiological alterations are associated with myelin levels in Plx3397 treated 5×FAD mice.
These observations point to synaptic connectivity, PNN extracellular architecture, and myelination as biological processes that GENUS impacts to improve the outcomes in Plx3397 administered 5×FAD mice. To further validate this, additional biochemical analyses were performed. […] Next, it was observed that Plx3397 (130.4±7.178), GENUS (116.2±5.225) and Plx3397+GENUS (119.0±6.325) all increased the WFA signals with the highest levels in Plx3397 alone group compared to controls (100±4.655) (FIGS. 25D, 25F). […] Synaptic input arriving within the PNN of parvalbumin (PV) interneurons and the PNN architecture are shown to modulate the activity of PV interneurons robustly. […] Next, although the total MBP levels was not affected (100±19.58, 132.4±30.10, 140.2±25.31, & 133.4±22.13 in control, Plx3397, GENUS, Plx3397+Genus groups, respectively), GENUS increased myelin ensheathment of axons of PV interneurons in Plx3397 administered 5×AFAD mice (20.75±1.45, 25.44±2.83, 37.91±4.56, & 31.3±3.21) (FIGS. 25D, 25H, 25I and FIG. 30C). Collectively, these findings show improved synaptic connectivity and axonal myelination of PV interneurons after repeated GENUS in Plx3397 administered 5×FAD mice.

[2] = hippocampus, chronic Plx3397 vs control

FC(F)(F)c1ccc(CNc2ccc(Cc3c[nH]c4ncc(Cl)cc34)cn2)cn1 [Plx3397, Pexidartinib]
synaptophysin (synaptophysin; [2]): increased
synaptophysin signals (synaptophysin; visual cortex, IHC, Plx3397 50 days): 6524128709±177336289 au
synaptophysin level (western blot) (synaptophysin; visual cortex, control 100±12.03): 185.3±23.83
MBP levels [1, 2]: did not affect
overall MBP signals ([1]; visual cortex, Plx3397 50 days, not significantly affected): 953800000±1277515477 au
total MBP levels ([1]; western blot, control 100±19.58, not affected): 132.4±30.10
myelin ensheathment of axons of PV interneurons ([1]; control 20.75±1.45): 25.44±2.83
